Data as given in patent US11130780B2, “Inhibitors of growth factor activation enzymes” (Washington University, priority 2015, dated 2021).
Where two headings read alike, the source gives them in different places. Starred links: 1 amine or outer side, 2 acyl side, 3 side chain; linkers in the order of their positions; H or OH if unused. Non-standard residues stand in square brackets, D forms with d. Residues, ends and D or L forms follow the SMILES beside them. X1 = N=C(N)NCCC[C@H](N[*:1])C(=O)c1nc2ccc(C(=O)[*:2])cc2s1

Assays:
Assay type in all cases: biochemical
Factor Xa = Factor Xa (Homo sapiens, UniProt P00742); experiment: Chromogenic kinetic enzyme assay of Factor Xa
Description: (§1) Inhibitors (11-pt serial dilutions, 0-20 μM final concentration) were serially diluted in DMSO (2% DMSO final concentration) and then mixed with recombinant thrombin (0.15 nM final concentration) or Factor Xa (0.35 nM final concentration) in TNC buffer (25 mM Tris, 150 mM NaCl, 5 mM CaCl2, 0.01% TRITON X-100, pH 8) using clear 384 well plates. […] Changes in absorbance at 405 nm were measured over time in a Biotek Synergy 2 plate (Winnoski, Vt.). Using GraphPad Prism version 6.04 software program, (GraphPad Software, San Diego, Calif., www.graphpad.com), a four parameter curve fit was used to determine the inhibitor IC50s from a plot of the mean reaction velocity versus the inhibitor concentration. Ki values were calculated from the IC50 values using the Cheng and Prusoff equation (Ki=IC50/(1+[S]/Km).

HGFA = target: T1, HGFA (Homo sapiens, UniProt Q04756); experiment: Fluorescent kinetic enzyme inhibitor assay of HGFA; conditions: read-out: HGFA Ki
T1 construct: His6 tag (N); seven amino acid spacer and seven amino acid TEV cleavage site (N); Honey Bee melittin signal peptide (N); made in house; host or cells: High 5 insect cells (baculovirus; virus raised in Sf9)
T1 sequence (Q04756 373-655): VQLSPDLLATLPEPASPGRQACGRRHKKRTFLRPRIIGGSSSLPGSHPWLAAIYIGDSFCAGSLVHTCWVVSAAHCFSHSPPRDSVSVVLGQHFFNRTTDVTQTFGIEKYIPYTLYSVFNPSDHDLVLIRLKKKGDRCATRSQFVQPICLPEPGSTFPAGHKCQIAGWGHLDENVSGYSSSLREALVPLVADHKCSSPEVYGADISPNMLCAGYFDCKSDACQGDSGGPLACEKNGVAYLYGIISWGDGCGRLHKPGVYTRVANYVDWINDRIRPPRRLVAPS
Outline: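 Recombinant His-tagged HGFA residues 373-655 from insect cells, with substrate at Km. Inhibitors in 11-point dilutions, 0-20 μM final, 2% DMSO, fluorescence (ex 380/em 460 nm) followed over time at room temperature. IC50 from four-parameter fit of mean velocity, average of three experiments.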

matriptase = target: T2, matriptase (Homo sapiens, UniProt Q9Y5Y6); experiment: Fluorescent kinetic enzyme inhibitor assay of matriptase
T2 construct: Charles Craik, UCSF (obtained from another laboratory)
T2 sequence (Q9Y5Y6 615-855 limits assumed): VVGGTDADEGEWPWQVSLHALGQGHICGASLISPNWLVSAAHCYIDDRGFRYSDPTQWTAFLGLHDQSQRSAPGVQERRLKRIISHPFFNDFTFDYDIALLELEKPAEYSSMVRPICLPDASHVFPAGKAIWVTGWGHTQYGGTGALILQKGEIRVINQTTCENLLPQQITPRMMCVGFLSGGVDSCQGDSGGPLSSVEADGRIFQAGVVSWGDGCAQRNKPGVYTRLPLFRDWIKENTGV
Outline: (§2)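 Fluorescence (ex 380/em 460 nm) followed kinetically at room temperature; IC50 from four-parameter fit of mean velocity versus concentration, averaged over three experiments.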

thrombin = thrombin (Homo sapiens, UniProt P00734); experiment: Chromogenic kinetic enzyme assay of thrombin
Description: as §1

hepsin = target: T3, hepsin (Homo sapiens, UniProt P05981); experiment: Fluorescent kinetic enzyme inhibitor assay of hepsin
T3 construct: purchased R&D Systems 4776-SE-010
Outline: as §2

[1] = Table 6.2, headed Fluorogenic Assay, read-out: Factor Xa Ki
[2] = Table 6.2, headed Fluorogenic Assay, read-out: Thrombin Ki
[3] = Table 6.1, Fluorogenic Assay, read-out: Hepsin Ki

T3 sequence (P05981 163-417 limits assumed): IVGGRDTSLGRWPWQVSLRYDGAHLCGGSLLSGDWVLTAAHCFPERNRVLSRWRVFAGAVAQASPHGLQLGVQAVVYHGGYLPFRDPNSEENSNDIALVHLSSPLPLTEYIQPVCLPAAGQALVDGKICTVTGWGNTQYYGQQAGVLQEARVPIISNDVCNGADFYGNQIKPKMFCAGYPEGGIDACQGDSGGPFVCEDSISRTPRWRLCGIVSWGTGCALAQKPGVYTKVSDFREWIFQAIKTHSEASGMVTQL
T3 sequence (P05981 45-162 partner limits assumed): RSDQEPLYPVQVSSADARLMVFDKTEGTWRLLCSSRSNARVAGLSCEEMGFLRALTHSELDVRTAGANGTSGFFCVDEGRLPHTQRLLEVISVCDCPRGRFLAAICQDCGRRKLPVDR
Sequence of Factor Xa (P00742 235-488 limits assumed): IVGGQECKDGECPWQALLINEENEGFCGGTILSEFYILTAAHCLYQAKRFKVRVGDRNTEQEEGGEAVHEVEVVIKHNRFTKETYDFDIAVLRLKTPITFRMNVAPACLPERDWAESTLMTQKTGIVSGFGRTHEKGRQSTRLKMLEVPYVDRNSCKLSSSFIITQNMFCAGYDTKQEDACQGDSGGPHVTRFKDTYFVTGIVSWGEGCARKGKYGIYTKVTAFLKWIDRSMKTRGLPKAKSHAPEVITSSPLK
Sequence of Factor Xa (P00742 41-179 partner limits assumed): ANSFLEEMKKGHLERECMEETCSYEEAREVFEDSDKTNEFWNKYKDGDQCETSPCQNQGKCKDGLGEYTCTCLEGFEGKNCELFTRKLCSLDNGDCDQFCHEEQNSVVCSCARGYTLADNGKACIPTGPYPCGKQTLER

CC(=O)N[C@@H](CCCCN)C(=O)N[C@@H](CCC(N)=O)C(=O)N[C@@H](CC(C)C)C(=O)N[C@@H](CCCNC(=N)N)C(=O)c1nc2ccc(C(=O)N[C@H](C(N)=O)C(C)C)cc2s1 [Compound 7055, Ac-KQLR(SEQ ID NO: 1)-Kbt-Val—NH2] (Ac-KQL[X1]V-NH2)
Ki (Factor Xa; [1]): 66 nM
Ki (HGFA; Table 6.1, Fluorogenic Assay): 12 nM
Ki (HGFA): 13 nM
Ki (matriptase): 7 nM
Ki (thrombin; [2]): 3210 nM
Ki (hepsin; read-out: hepsin Ki): 0.3 nM

CC(=O)N[C@@H](Cc1c[nH]c2ccccc12)C(=O)N[C@@H](CC(C)C)C(=O)N[C@@H](Cc1ccccc1)C(=O)N[C@@H](CCCNC(=N)N)C(=O)c1nc2ccccc2s1 [Compound 7064, Ac-WLFR(SEQ ID NO: 20)-Kbt]
Ki (Factor Xa; [1]): 1 nM
Ki (HGFA; Table 6.1, Fluorogenic Assay): 133 nM
Ki (thrombin; [2]): > 20000 nM

CC(=O)N[C@@H](CCCCN)C(=O)N[C@@H](CCCNC(=N)N)C(=O)N[C@@H](CC(C)C)C(=O)N[C@@H](CCCNC(=N)N)C(=O)c1nc2ccc(C(=O)N[C@H](C(N)=O)C(C)C)cc2s1 [Compound 7115, Ac-KRLR(SEQ ID NO: 8)-Kbt-Val—NH2] (Ac-KRL[X1]V-NH2)
Ki (Factor Xa; [1]): 17 nM
Ki (HGFA; Table 6.1, Fluorogenic Assay): 5.83 nM
Ki (matriptase; Table 6.1, Fluorogenic Assay): 7.41 nM
Ki (thrombin; [2]): 1560 nM

CC(=O)N[C@@H](CO)C(=O)N[C@@H](CCCCN)C(=O)N[C@@H](CC(C)C)C(=O)N[C@@H](CCCNC(=N)N)C(=O)c1nc2ccc(C(=O)N[C@H](C(N)=O)C(C)C)cc2s1 [Compound 7116, Ac-SKLR(SEQ ID NO: 10)-Kbt-Val— NH2] (Ac-SKL[X1]V-NH2)
Ki (Factor Xa): 385 nM
Ki (HGFA; Table 6.1, Fluorogenic Assay): 13 nM
Ki (thrombin): 4500 nM
Ki (hepsin; [3]): 0.19 nM

CC(=O)N[C@@H](CO)C(=O)N[C@@H](CCCCN)C(=O)N[C@@H](CC(C)C)C(=O)N[C@@H](CCCNC(=N)N)C(=O)c1nc2ccc(C(=O)O)cc2s1 [Compound 7118, Ac-SKLR(SEQ ID NO: 10)-Kbt-COOH]
Ki (Factor Xa; [1]): 1250 nM
Ki (HGFA; Table 6.1, Fluorogenic Assay): 132 nM
Ki (thrombin; [2]): > 2000 nM

CC(=O)N[C@@H](CO)C(=O)N[C@@H](CCCCN)C(=O)N[C@@H](CC(C)C)C(=O)N[C@@H](CCCNC(=N)N)C(=O)c1nc2ccc(C(=O)N[C@@H](Cc3c[nH]c4ccccc34)C(N)=O)cc2s1 [Compound 7124, Ac-SKLR(SEQ ID NO: 10)-Kbt-Trp— NH2] (Ac-SKL[X1]W-NH2)
Ki (Factor Xa; [1]): 163 nM
Ki (HGFA; Table 6.1, Fluorogenic Assay): 15.8 nM
Ki (thrombin; [2]): 1230 nM

CC(=O)N[C@@H](CO)C(=O)N[C@@H](CCCCN)C(=O)N[C@@H](CC(C)C)C(=O)N[C@@H](CCCNC(=N)N)C(=O)c1nc2ccc(C(=O)N[C@@H](Cc3ccccc3)C(N)=O)cc2s1 [Compound 7125, Ac-SKLR(SEQ ID NO: 10)-Kbt-Phe— NH2] (Ac-SKL[X1]F-NH2)
Ki (Factor Xa; [1]): 544 nM
Ki (HGFA; Table 6.1, Fluorogenic Assay): 17.3 nM
Ki (thrombin; [2]): 3640 nM
Ki (hepsin; [3]): 0.14 nM

CC(=O)N[C@@H](CO)C(=O)N[C@@H](CCCCN)C(=O)N[C@@H](CC(C)C)C(=O)N[C@@H](CCCNC(=N)N)C(=O)c1nc2ccc(C(=O)Nc3ccncc3)cc2s1 [Compound 7126, Ac-SKLR(SEQ ID NO: 10)-Kbt-4-pyridinylamide]
Ki (Factor Xa; [1]): 221 nM
Ki (HGFA; Table 6.1, Fluorogenic Assay): 31.8 nM
Ki (thrombin; [2]): 3430 nM
Ki (hepsin; [3]): 0.14 nM

CC(=O)N[C@@H](CO)C(=O)N[C@@H](CCCCN)C(=O)N[C@@H](CC(C)C)C(=O)N[C@@H](CCCNC(=N)N)C(=O)c1nc2ccc(C(=O)NCc3ccccc3)cc2s1 [Compound 7139, Ac-SKLR(SEQ ID NO: 10)-Kbt- benzylamide]
Ki (Factor Xa; [1]): 190 nM
Ki (HGFA; Table 6.1, Fluorogenic Assay): 9.1 nM
Ki (thrombin; [2]): 2470 nM

CC(=O)N[C@@H](CO)C(=O)N[C@@H](CCCCN)C(=O)N[C@@H](CC(C)C)C(=O)N[C@@H](CCCNC(=N)N)C(=O)c1nc2ccc(C(=O)NC3CCNCC3)cc2s1 [Compound 7140, Ac-SKLR(SEQ ID NO: 10)-Kbt-4-piperidinylamide]
Ki (Factor Xa; [1]): 447 nM
Ki (HGFA; Table 6.1, Fluorogenic Assay): 7.7 nM
Ki (thrombin; [2]): 2950 nM

CC(=O)N[C@@H](CCCCN)C(=O)N[C@@H](CCCNC(=N)N)C(=O)N[C@@H](CC(C)C)C(=O)N[C@@H](CCCNC(=N)N)C(=O)c1nc2ccc(C(=O)NCc3cccc(C(=O)O)c3)cc2s1 [Compound 7165, Ac-KRLR(SEQ ID NO: 8)-Kbt-5-COOH]
Ki (Factor Xa; [1]): 20.2 nM
Ki (HGFA; Table 6.1, Fluorogenic Assay): 6.07 nM
Ki (thrombin; [2]): 1940 nM

CC(C)C[C@H](NC(=O)[C@@H](N)Cc1c[nH]c2ccccc12)C(=O)N[C@@H](CCCNC(=N)N)C(=O)c1nc2ccccc2s1 [Compound 7170, H-WLR-kbt]
Ki (Factor Xa; [1]): 532 nM
Ki (HGFA; Table 6.1, Fluorogenic Assay): 104 nM
Ki (thrombin; [2]): 457 nM

CC(C)C[C@H](NC(=O)[C@@H](N)CCCNC(=N)N)C(=O)N[C@@H](CCCNC(=N)N)C(=O)c1nc2ccccc2s1 [Compound 7171, H-RLR-kbt]
Ki (Factor Xa; [1]): 56 nM
Ki (HGFA; Table 6.1, Fluorogenic Assay): 83.1 nM
Ki (thrombin; [2]): 8200 nM

CC(C)C[C@H](NC(=O)[C@@H](N)CCCNC(=N)N)C(=O)N[C@@H](CCCNC(=N)N)C(=O)c1nc2ccc(C(=O)N[C@H](C(N)=O)C(C)C)cc2s1 [Compound 7180, H-RLR-kbt V amide]
Ki (Factor Xa; [1]): 18 nM
Ki (HGFA; Table 6.1, Fluorogenic Assay): 12.5 nM
Ki (thrombin; [2]): 548 nM

CC(C)C[C@H](NC(=O)[C@@H](N)Cc1c[nH]c2ccccc12)C(=O)N[C@@H](CCCNC(=N)N)C(=O)c1nc2ccc(C(=O)N[C@H](C(N)=O)C(C)C)cc2s1 [Compound 7181, H-WLR-kbt V amide]
Ki (Factor Xa; [1]): 159 nM
Ki (HGFA; Table 6.1, Fluorogenic Assay): 73.9 nM
Ki (thrombin; [2]): 41 nM

CC(C)C[C@H](NC(=O)[C@@H](N)CC(C)C)C(=O)N[C@@H](CCCNC(=N)N)C(=O)c1nc2ccc(C(=O)N[C@H](C(N)=O)C(C)C)cc2s1 [Compound 7182, H-LLR-kbt V amide]
Ki (Factor Xa; [1]): 159 nM
Ki (HGFA; Table 6.1, Fluorogenic Assay): 82.1 nM
Ki (thrombin; [2]): 101 nM

CC(C)C[C@H](NC(=O)OCC1c2ccccc2-c2ccccc21)C(=O)N[C@@H](CCCNC(=N)N)C(=O)c1nc2ccccc2s1 [Compound 7185-11, Fmoc-LR-kbt]
Ki (Factor Xa; [1]): 410 nM
Ki (HGFA; Table 6.1, Fluorogenic Assay): 450 nM
Ki (thrombin; [2]): 995 nM
